# Non-standard residues stand in square brackets, D forms with d. Residues, ends and D or L forms follow the SMILES beside them. Ava = NCCCCC(=O)O
# Tests used:
# [1] = tested on: Staphylococcus aureus ATCC 29213; type: cell-based
# [2] = tested on: Escherichia coli ATCC 25922; type: cell-based
# [3] = tested on: Pseudomonas aeruginosa ATCC 27853; type: cell-based
# C. albicans = conditions: 24 h
# C. glabrata = conditions: 24 h
# C. parapsilosis = conditions: 24 h
# C. krusei = conditions: 24 h
# C. auris = conditions: 24 h
# C. tropicalis = conditions: 24 h
# C. dubliniensis = conditions: 24 h
# C. neoformans = conditions: 72 h
# C. gattii = conditions: 72 h
# Fusarium spp. = conditions: 48 h
# Scedosporium spp. = conditions: 72 h
# in vitro = conditions: human, EC50 cytotoxicity in HepG2, intracellular ATP assay
SMILES,MIC C. albicans (C. albicans),MIC C. glabrata (C. glabrata),MIC C. parapsilosis (C. parapsilosis),MIC C. krusei (C. krusei),MIC C. auris (C. auris),MIC C. tropicalis (C. tropicalis),MIC C. dubliniensis (C. dubliniensis),MIC C. neoformans (C. neoformans),MIC C. gattii (C. gattii),MIC Range Fusarium spp. (Fusarium spp.),MIC Range Scedosporium spp. (Scedosporium spp.),MIC Range Lomentospora prolificans (Lomentospora prolificans),Activity at 24 h MIC50 against Candida spp. (Candida spp.),Activity at 24 h MIC90 against Candida spp. (Candida spp.),Activity at 48 h MIC50 against Candida spp. (Candida spp.),Activity at 48 h MIC90 against Candida spp. (Candida spp.),MIC Range Cryptococcus spp. (Cryptococcus spp.),MIC Range Filamentous Fungi (Filamentous Fungi),EC50 (in vitro),other results
"N=C(N)NCCC[C@@H](N)C(=O)N[C@@H](CCCNC(=N)N)C(=O)N[C@H](CCCNC(=N)N)C(=O)NCCCCC(=O)N[C@H](CCCNC(=N)N)C(=O)N[C@@H](CCCNC(=N)N)C(=O)N[C@H](CCCNC(=N)N)C(=O)NCCCCC(=O)N[C@H](CCCNC(=N)N)C(=O)N[C@@H](CCCNC(=N)N)C(=O)N[C@H](CCCNC(=N)N)C(=O)N[C@@H](CCCNC(=N)N)C(=O)NCCCCC(=O)N[C@H](CCCNC(=N)N)C(=O)N[C@@H](CCCNC(=N)N)C(=O)N[C@H](CCCNC(=N)N)C(=O)N[C@@H](CCCNC(=N)N)C(N)=O [SEQ ID NO: 18, rRr-(Ava)-rRr-(Ava)-rRrR-(Ava)-rRrR-NH2] (H-[dR]R[dR][Ava][dR]R[dR][Ava][dR]R[dR]R[Ava][dR]R[dR]R-NH2)",1 µg/mL,0.5 µg/mL,0.25 µg/mL,0.5 µg/mL,0.25 µg/mL,0.5 µg/mL,0.5 µg/mL,0.25 µg/mL,0.25 µg/mL,0.25 to 0.5 µg/mL,0.25 to 0.5 µg/mL,0.5 µg/mL,0.5 µg/mL,1 µg/mL,0.5 µg/mL,2 µg/mL,0.25 to 0.5 µg/mL,0.25 to 0.5 µg/mL,> 300 µg/mL,MIC Staphylococcus aureus [1]: 16 µg/mL; MIC Escherichia coli [2]: 32 µg/mL; MIC Pseudomonas aeruginosa [3]: 64 µg/mL
"N=C(N)NCCC[C@@H](N)C(=O)N[C@@H](CCCNC(=N)N)C(=O)N[C@H](CCCNC(=N)N)C(=O)NCCCCC(=O)N[C@H](CCCNC(=N)N)C(=O)N[C@@H](CCCNC(=N)N)C(=O)N[C@H](CCCNC(=N)N)C(=O)NCCCCC(=O)N[C@H](CCCNC(=N)N)C(=O)N[C@@H](CCCNC(=N)N)C(=O)N[C@H](CCCNC(=N)N)C(=O)NCCCCC(=O)N[C@H](CCCNC(=N)N)C(=O)N[C@@H](CCCNC(=N)N)C(=O)N[C@H](CCCNC(=N)N)C(N)=O [SEQ ID NO: 22, rRr-(Ava)-rRr-(Ava)-rRr-(Ava)-rRr-NH2] (H-[dR]R[dR][Ava][dR]R[dR][Ava][dR]R[dR][Ava][dR]R[dR]-NH2)",0.5 µg/mL,0.5 µg/mL,0.25 µg/mL,1 µg/mL,2 µg/mL,0.5 µg/mL,0.25 µg/mL,1 µg/mL,0.5 µg/mL,0.5 to 16 µg/mL,1 to 2 µg/mL,2 µg/mL,1 µg/mL,8 µg/mL,2 µg/mL,32 µg/mL,0.5 to 1 µg/mL,0.5 to 16 µg/mL,–,–
"N=C(N)NCCC[C@@H](N)C(=O)N[C@@H](CCCNC(=N)N)C(=O)N[C@H](CCCNC(=N)N)C(=O)NCCCCC(=O)N[C@H](CCCNC(=N)N)C(=O)N[C@@H](CCCNC(=N)N)C(=O)NCCCCC(=O)N[C@H](CCCNC(=N)N)C(=O)N[C@@H](CCCNC(=N)N)C(=O)NCCCCC(=O)N[C@H](CCCNC(=N)N)C(=O)N[C@@H](CCCNC(=N)N)C(=O)N[C@H](CCCNC(=N)N)C(N)=O [SEQ ID NO: 28, rRr-(Ava)-rR-(Ava)-rR-(Ava)-rRr-NH2] (H-[dR]R[dR][Ava][dR]R[Ava][dR]R[Ava][dR]R[dR]-NH2)",2 µg/mL,4 µg/mL,0.5 µg/mL,8 µg/mL,>32 µg/mL,1 µg/mL,1 µg/mL,8 µg/mL,4 µg/mL,–,4 µg/mL,32 µg/mL,8 µg/mL,>32 µg/mL,8 µg/mL,>32 µg/mL,2 to 8 µg/mL,–,–,–
"N=C(N)NCCC[C@@H](N)C(=O)N[C@@H](CCCNC(=N)N)C(=O)N[C@H](CCCNC(=N)N)C(=O)N1CCC[C@H]1C(=O)N[C@H](CCCNC(=N)N)C(=O)N[C@@H](CCCNC(=N)N)C(=O)N[C@H](CCCNC(=N)N)C(=O)N1CCC[C@H]1C(=O)N[C@H](CCCNC(=N)N)C(=O)N[C@@H](CCCNC(=N)N)C(=O)N[C@H](CCCNC(=N)N)C(=O)N1CCC[C@H]1C(=O)N[C@H](CCCNC(=N)N)C(=O)N[C@@H](CCCNC(=N)N)C(=O)N[C@H](CCCNC(=N)N)C(N)=O [SEQ ID NO: 66, rRr-P-rRr-P-rRr-P-rRr-NH2] (H-[dR]R[dR]P[dR]R[dR]P[dR]R[dR]P[dR]R[dR]-NH2)",0.25 µg/mL,0.5 µg/mL,0.25 µg/mL,0.5 µg/mL,8 µg/mL,0.25 µg/mL,0.25 µg/mL,0.5 µg/mL,1 µg/mL,0.12 to 8 µg/mL,0.5 to 2 µg/mL,2 µg/mL,0.5 µg/mL,8 µg/mL,0.5 µg/mL,16 µg/mL,0.5 to 1 µg/mL,0.12 to 8 µg/mL,> 300 µg/mL,–
"N=C(N)NCCC[C@@H](N)C(=O)N[C@@H](CCCNC(=N)N)C(=O)N[C@H](CCCNC(=N)N)C(=O)N1CCC[C@H]1C(=O)N[C@H](CCCNC(=N)N)C(=O)N[C@@H](CCCNC(=N)N)C(=O)N1CCC[C@H]1C(=O)N[C@H](CCCNC(=N)N)C(=O)N[C@@H](CCCNC(=N)N)C(=O)N1CCC[C@H]1C(=O)N[C@H](CCCNC(=N)N)C(=O)N[C@@H](CCCNC(=N)N)C(=O)N[C@H](CCCNC(=N)N)C(N)=O [SEQ ID NO: 70, rRr-P-rR-P-rR-P-rRr-NH2] (H-[dR]R[dR]P[dR]RP[dR]RP[dR]R[dR]-NH2)",0.5 µg/mL,4 µg/mL,2 µg/mL,2 µg/mL,>32 µg/mL,1 µg/mL,1 µg/mL,8 µg/mL,4 µg/mL,–,8 µg/mL,32 µg/mL,4 µg/mL,>32 µg/mL,8 µg/mL,>32 µg/mL,1 to 8 µg/mL,–,–,–
